CD₅₀ and IC50 data for 17 compounds are collected here from patent publication EP0409227A2, “Pyrimidine nucleosides, their preparation and pharmaceutical preparations” (MATTHES, Eckart, Dr., priority 1989, dated 1991).

Like-named read-outs stand apart in the source and are kept apart here. Some results are limits rather than exact numbers.

One data set has as its system MT4 Zellen. The data set is described as follows: Cytotoxicity: inhibition of proliferation of MT4 cells. The format is cell-based. Here is the method:
Unter dem Aspekt einer möglichen Anwendung der Verbindungen am Menschen wurden ihre antiproliferativen Wirkungen an menschlichen Zellkulturen wie früher beschrieben getestet (E. Matthes et al. Biochem.Biophys.Res.Commun. 153, 825 (1988)). Dabei zeigte sich, daß z.B. 2′,3′-Didesoxy-3-fluor-5-methylcytidin gegenüber der T-Zellinie MT4 eine CD₅₀ von 190 µM aufweist. In einem weiteren Test, in dem eine mögliche Wachstumshemmung koloniebildender Zellen des Knochenmarks der Maus (CFU-GM) untersucht wurde (E. Matthes et al. Biochem.Biophys.Res.Commun. 165, 488 (1989), erwies sich diese Verbindung ebenfalls als kaum proliferationshemmend (CD₅₀ > 500 µM). Die Wirkung weiterer Verbindungen auf die Proliferation von MT4-Zellen ist in Tabelle 3 zusammengefaßt. Tabelle 3

The target in another data set is T1, HBV-Polymerase (Hepatitis B virus genotype D subtype ayw, UniProt P03156).
T1 construct: Es wurde zunächst die Hemmbarkeit der HBV-assoziierten Polymerase; host or cells: virus-associated endogenous polymerase
The data set is described as follows: Inhibition of HBV polymerase activity by nucleoside triphosphate analogues (method of Kaplan et al.). The format is biochemical. The settings on record: 50 % inhibition of HBV polymerase activity; 3 h incubation at 37 °C; read-out: ID₅₀. From the text:
Das Hepatitis B Virus (HBV) besitzt eine zirkuläre, partiell doppelsträngige DNA, welche nach Infektion einer Leberzelle durch eine viruseigene Polymerase repliziert wird. Dieser Vorgang setzt jedoch die Synthese einer RNA durch eine zelluläre RNA-Polymerase voraus. Nur diese RNA-Matrize - im Zusammenhang mit der Replikation auch als Prägenom bezeichnet - kann von der HBV-Polymerase für die Synthese zunächst eines RNA-DNA Hybrids und dann der doppelsträngigen DNA benutzt werden. Damit verfügt die HBV-Polymerase über eine enzymatische Aktivität, die der einer reversen Transcriptase ähnelt (Will et al., J.Virology 61, 904 (1987)). Es wurde zunächst die Hemmbarkeit der HBV-assoziierten Polymerase durch die 5′-Triphosphate der erfindungsgemäßen Verbindungen untersucht. Dazu wurde die von Kaplan et al. (J.Virology 12, 995 (1973)) angegebene Methode zur Bestimmung der HBV-Polymerase benutzt, wobei die zu testenden Triphosphate den Ansätzen in verschiedenen Konzentrationen zugesetzt wurden. Die Hemmung der Enzymreaktion wurde nach 3-stündiger Inkubation bei 37 °C durch Vergleich mit einem Kontrollwert ermittelt und daraus die Konzentration der zugesetzten Analoga bestimmt, die zu einer 50 %igen Hemmung der HBV-Polymerase-Aktivität führt (ID₅₀). Tabelle 1 zeigt die Ergebnisse, wobei insbesondere 2′,3′-Didesoxy-3′-fluor-5-methylcytidin durch einen Wert ID₅₀ von 0,03 µM herausragt und damit zu den stärksten bisher bekannten Hemmstoffen der HBV-Polymerase zu rechnen ist. Tabelle 1

Another data set addresses T2, DNA-Polymerase-alpha (Homo sapiens, UniProt P09884).
T2 construct: Die Isolierung der Enzyme und deren Aktivitätsbestimmung erfolgte entsprechend der Methode von Matthes et al; from tissue
T2 sequence (P09884 1-1462): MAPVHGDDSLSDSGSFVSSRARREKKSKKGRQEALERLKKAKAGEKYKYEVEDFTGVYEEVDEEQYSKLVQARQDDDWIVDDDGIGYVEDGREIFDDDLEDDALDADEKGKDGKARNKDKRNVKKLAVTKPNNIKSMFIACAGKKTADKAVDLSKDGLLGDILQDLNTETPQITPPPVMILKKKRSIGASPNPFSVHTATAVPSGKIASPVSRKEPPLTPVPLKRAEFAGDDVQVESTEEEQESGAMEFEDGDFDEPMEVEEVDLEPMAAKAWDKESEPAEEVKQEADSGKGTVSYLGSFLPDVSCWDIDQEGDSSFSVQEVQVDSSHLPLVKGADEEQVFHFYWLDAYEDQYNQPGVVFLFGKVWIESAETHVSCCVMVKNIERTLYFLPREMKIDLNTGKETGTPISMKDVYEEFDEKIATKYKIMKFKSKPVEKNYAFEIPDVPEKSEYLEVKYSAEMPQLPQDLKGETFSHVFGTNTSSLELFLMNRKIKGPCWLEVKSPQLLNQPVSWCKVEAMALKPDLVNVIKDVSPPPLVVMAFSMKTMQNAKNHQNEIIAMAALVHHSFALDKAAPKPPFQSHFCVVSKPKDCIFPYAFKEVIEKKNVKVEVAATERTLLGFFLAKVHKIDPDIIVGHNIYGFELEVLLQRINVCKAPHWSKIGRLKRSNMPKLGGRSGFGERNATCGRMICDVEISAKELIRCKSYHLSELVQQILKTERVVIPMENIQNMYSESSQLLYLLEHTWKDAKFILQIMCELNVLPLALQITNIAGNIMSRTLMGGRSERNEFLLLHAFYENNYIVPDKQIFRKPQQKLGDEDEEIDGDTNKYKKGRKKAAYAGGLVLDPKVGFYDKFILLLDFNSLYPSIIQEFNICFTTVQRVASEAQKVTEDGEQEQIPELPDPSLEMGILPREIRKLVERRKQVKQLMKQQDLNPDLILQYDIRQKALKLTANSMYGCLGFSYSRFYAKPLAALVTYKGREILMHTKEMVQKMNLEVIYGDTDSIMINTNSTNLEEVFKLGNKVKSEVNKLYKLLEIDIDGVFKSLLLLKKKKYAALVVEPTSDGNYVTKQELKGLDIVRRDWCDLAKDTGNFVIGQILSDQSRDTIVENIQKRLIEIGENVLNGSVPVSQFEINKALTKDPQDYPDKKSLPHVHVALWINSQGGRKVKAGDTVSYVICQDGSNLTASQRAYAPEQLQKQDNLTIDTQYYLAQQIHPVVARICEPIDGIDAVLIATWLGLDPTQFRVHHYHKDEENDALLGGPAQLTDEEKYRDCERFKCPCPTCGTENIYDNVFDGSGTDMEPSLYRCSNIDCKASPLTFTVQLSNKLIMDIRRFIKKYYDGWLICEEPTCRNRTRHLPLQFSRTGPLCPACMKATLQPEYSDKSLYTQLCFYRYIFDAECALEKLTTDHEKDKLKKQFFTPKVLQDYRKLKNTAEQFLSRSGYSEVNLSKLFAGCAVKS
The data set is described as follows: Effect of modified nucleoside triphosphates on cellular DNA polymerase alpha. The settings on record: read-out: ID₅₀ (µM) DNA-Polymerase- alpha. The format is biochemical. From the text: (§1) Um zu prüfen, inwieweit die beschriebene Wirkung auf die HBV-Polymerase selektiv ist, d.h., die zellulären DNA-Polymerasen von einer Hemmung durch die erfindungsgemäßen Nucleosidtriphosphate ausgenommen sind, wurden die zellulären DNA-Polymerasen-alpha und -beta in die Untersuchungen einbezogen. Die Isolierung der Enzyme und deren Aktivitätsbestimmung erfolgte entsprechend der Methode von Matthes et al. (Biomed.Biochim.Acta 44, K63-K73 (1985)). Die Ergebnisse der Tabelle 2 zeigen, daß die für die Replikation der zellulären DNA zuständige DNA-Polymerase alpha weitgehend unbeeinflußt bleibt. Eine 50 %ige Hemmung dieses Enzyms wird mit Ausnahme auch bei Hemmstoffkonzentrationen >100 µM noch nicht erreicht, so daß die DNA-Polymerase-alpha diesen Verbindungen gegenüber als nahezu resistent anzusehen ist. Für die DNA-Polymerase-beta, die als Reparaturenzym zellulärer DNA-Schäden angesehen wird, liegen die ID₅₀- Werte zwischen 1 und >200 µM. Damit besitzt die beschriebene Verbindung eine hohe Wirkungsspezifität. Tabelle 2

The next data set addresses T3, DNA-Polymerase-beta (Homo sapiens, UniProt P06746).
T3 construct: Die Isolierung der Enzyme und deren Aktivitätsbestimmung erfolgte entsprechend der Methode von Matthes et al; from tissue
The data set is described as follows: Effect of modified nucleoside triphosphates on cellular DNA polymerase beta. The settings on record: read-out: ID₅₀ (µM) DNA-Polymerase- beta. The format is biochemical.
From the text: as §1

T1 sequence (P03156 whole entry): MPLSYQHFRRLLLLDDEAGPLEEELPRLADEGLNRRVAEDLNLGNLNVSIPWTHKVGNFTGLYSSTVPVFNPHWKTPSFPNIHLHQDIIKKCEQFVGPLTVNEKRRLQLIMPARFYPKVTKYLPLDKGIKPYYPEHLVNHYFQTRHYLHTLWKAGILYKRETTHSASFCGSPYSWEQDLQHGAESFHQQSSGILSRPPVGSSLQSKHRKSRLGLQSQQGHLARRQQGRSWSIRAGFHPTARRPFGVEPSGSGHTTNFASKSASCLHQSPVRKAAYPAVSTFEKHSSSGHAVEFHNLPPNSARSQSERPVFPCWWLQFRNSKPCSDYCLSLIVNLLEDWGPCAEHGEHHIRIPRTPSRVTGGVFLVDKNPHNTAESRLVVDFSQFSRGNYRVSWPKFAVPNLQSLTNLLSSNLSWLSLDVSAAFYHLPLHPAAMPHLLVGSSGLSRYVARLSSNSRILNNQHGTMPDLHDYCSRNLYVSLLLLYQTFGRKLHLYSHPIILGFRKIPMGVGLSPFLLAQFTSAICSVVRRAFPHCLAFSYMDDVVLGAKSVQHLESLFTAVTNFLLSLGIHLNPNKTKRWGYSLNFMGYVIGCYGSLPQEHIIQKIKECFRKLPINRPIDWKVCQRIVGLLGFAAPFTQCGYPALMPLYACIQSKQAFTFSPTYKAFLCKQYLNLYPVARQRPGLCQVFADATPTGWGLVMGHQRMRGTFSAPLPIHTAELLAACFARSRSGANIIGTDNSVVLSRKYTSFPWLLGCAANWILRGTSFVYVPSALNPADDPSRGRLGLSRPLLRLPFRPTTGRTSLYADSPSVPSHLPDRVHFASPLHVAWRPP

Consider `Cc1cn([C@H]2C=C[C@@H](CO)O2)c(=O)nc1N` [2′,3′-Didehydro-2′,3′-didesoxy-5-methylcytidin], for which the CD₅₀ with MT4 Zellen (human, 48 h) was determined as 205 µM.

On to `Nc1nc2c(ncn2[C@H]2C=C[C@@H](CO)O2)c(=O)[nH]1` [2′,3′-Didehydro-2′,3′-didesoxyguanosin], for which, in the data set with MT4 Zellen (human, 48 h), the CD₅₀ was found to be 155 µM.

With `Nc1nc2c(ncn2[C@H]2C[C@H](N)[C@@H](CO)O2)c(=O)[nH]1` [2′,3′-Didesoxy-3′-aminoguanosin], the CD₅₀ in the data set with MT4 Zellen (human, 48 h) worked out at 210 µM.

As to `Cc1cn([C@H]2C[C@H](N=[N+]=[N-])[C@@H](CO)O2)c(=O)nc1N` [2′,3′-Didesoxy-3′-azido-5-methylcytidin], the CD₅₀ with MT4 Zellen (human, 48 h) is reported as > 500 µM.

Compound `Nc1nc2c(ncn2[C@H]2C[C@H](F)[C@@H](CO)O2)c(=O)[nH]1` [2′,3′-Didesoxy-3′-fluorguanosin] showed a CD₅₀ in the data set with MT4 Zellen of 250 µM.

In the case of `Cc1cn([C@H]2CC[C@@H](CO)O2)c(=O)nc1N` [2′,3′-Didesoxy-5-methylcytidin], in the data set on MT4 Zellen (human, 48 h), the CD₅₀ was 110 µM.

As to `Cc1cn([C@H]2C[C@H](Cl)[C@@H](COP(=O)(O)OP(=O)(O)OP(=O)(O)O)O2)c(=O)nc1N` [ClMetdCTP, 2′,3′-Didesoxy-3′chlor-5-methylcytidin-5′-triphosphat], the IC50 is 9 µM on HBV-Polymerase, > 200 µM at DNA-Polymerase-alpha and 100 µM on DNA-Polymerase-beta.

Take `CCc1cn([C@H]2C[C@H](F)[C@@H](COP(=O)(O)OP(=O)(O)OP(=O)(O)O)O2)c(=O)nc1N` [FEtdCTP, 2′,3′-Didesoxy-3′-fluor-5-ethylcytidin-5′-triphosphat]: the values for the IC50 on HBV-Polymerase, at DNA-Polymerase-alpha and at DNA-Polymerase-beta were 0.35 µM, > 200 µM and 3 µM, respectively.

On to `Cc1cn([C@H]2C[C@H](F)[C@@H](COP(=O)(O)OP(=O)(O)OP(=O)(O)O)O2)c(=O)nc1N` [FMetdCTP, 2′,3′-Didesoxy-3′-fluor-5-methylcytidin-5′-triphosphat], for which the IC50 was 0.03 µM at HBV-Polymerase, > 200 µM at DNA-Polymerase-alpha and 1 µM at DNA-Polymerase-beta.

Regarding `Nc1nc2c(ncn2[C@H]2C[C@H](F)[C@@H](COP(=O)(O)OP(=O)(O)OP(=O)(O)O)O2)c(=O)[nH]1` [FdGTP, 2′,3′-Didesoxy-3′-fluorguanosin-5′-triphosphat], the figures for the IC50 at HBV-Polymerase, on DNA-Polymerase-alpha and on DNA-Polymerase-beta were 0.15 µM, > 200 µM and 1.8 µM, respectively.

For `Cc1cn([C@H]2C[C@H](N)[C@@H](COP(=O)(O)OP(=O)(O)OP(=O)(O)O)O2)c(=O)nc1N` [NH₂MetdCTP, 2′,3′-Didesoxy-3′-amino-5-methylcytidin-5′-triphosphat], the values for the IC50 on HBV-Polymerase, on DNA-Polymerase-alpha and on DNA-Polymerase-beta were 26 µM, > 200 µM and > 200 µM, respectively.

On to `Cc1cn([C@H]2C[C@H](N=[N+]=[N-])[C@@H](COP(=O)(O)OP(=O)(O)OP(=O)(O)O)O2)c(=O)nc1N` [N₃MetdCTP, 2′,3′-Didesoxy-3′-azido-5-methylcytidin-5′-triphosphat], for which the results for the IC50 at HBV-Polymerase, on DNA-Polymerase-alpha and at DNA-Polymerase-beta were 0.12 µM, > 200 µM and > 200 µM, respectively.

As to `Cc1cn([C@H]2CC[C@@H](COP(=O)(O)OP(=O)(O)OP(=O)(O)O)O2)c(=O)nc1N` [ddMetCTP, 2′,3′-Didesoxy-5-methylcytidin-5′-triphosphat], the IC50 on HBV-Polymerase is 8 µM; at DNA-Polymerase-alpha, > 200 µM; at DNA-Polymerase-beta, > 100 µM.

With `Nc1ncnc2c1ncn2[C@H]1C=C[C@@H](COP(=O)(O)OP(=O)(O)OP(=O)(O)O)O1` [ddeATP, 2′,3′-Didehydro-2′,3′-didesoxyadenosin-5′-triphosphat], the IC50 was 1.8 µM on HBV-Polymerase, > 100 µM on DNA-Polymerase-alpha and 4.5 µM at DNA-Polymerase-beta.

On to `Nc1ccn([C@H]2C=C[C@@H](COP(=O)(O)OP(=O)(O)OP(=O)(O)O)O2)c(=O)n1` [ddeCTP, 2′,3′-Didehydro-2′,3′-didesoxycytidin-5′-triphosphat], for which the IC50 at HBV-Polymerase is 2.5 µM; on DNA-Polymerase-alpha it was > 200 µM; at DNA-Polymerase-beta, 6 µM.

Take `Nc1nc2c(ncn2[C@H]2C=C[C@@H](COP(=O)(O)OP(=O)(O)OP(=O)(O)O)O2)c(=O)[nH]1` [ddeGTP, 2′,3′-Didehydro-2′,3′-didesoxyguanosin-5′-triphosphat]: the IC50 is 1.6 µM on HBV-Polymerase, > 150 µM on DNA-Polymerase-alpha and 5 µM on DNA-Polymerase-beta.

Turning to `Cc1cn([C@H]2C=C[C@@H](COP(=O)(O)OP(=O)(O)OP(=O)(O)O)O2)c(=O)nc1N` [ddeMetCTP, 2′,3′-Didehydro-2′,3′-didesoxy-5-methylcytidin-5′-triphosphat], the IC50 was 0.28 µM on HBV-Polymerase, > 200 µM on DNA-Polymerase-alpha and 10 µM at DNA-Polymerase-beta.
